Reference: ChEMBL document CHEMBL1130566, “A nonpeptidic agonist ligand of the human C5a receptor: Synthesis, binding affinity optimization and functional characterization” (Bioorg Med Chem Lett, 1997)

How the values were obtained:
[1] = target: T1, C5a anaphylatoxin chemotactic receptor 1 (Homo sapiens, UniProt P21730); test: Tested for the ability to compete with [125I]-CO13 ([125I]-Y-F-K-A-Cha-G-L-dF-R) for binding to C5a anaphylatoxin chemotactic receptor from human neutrophil membrane preparations
T1 sequence (P21730 whole entry): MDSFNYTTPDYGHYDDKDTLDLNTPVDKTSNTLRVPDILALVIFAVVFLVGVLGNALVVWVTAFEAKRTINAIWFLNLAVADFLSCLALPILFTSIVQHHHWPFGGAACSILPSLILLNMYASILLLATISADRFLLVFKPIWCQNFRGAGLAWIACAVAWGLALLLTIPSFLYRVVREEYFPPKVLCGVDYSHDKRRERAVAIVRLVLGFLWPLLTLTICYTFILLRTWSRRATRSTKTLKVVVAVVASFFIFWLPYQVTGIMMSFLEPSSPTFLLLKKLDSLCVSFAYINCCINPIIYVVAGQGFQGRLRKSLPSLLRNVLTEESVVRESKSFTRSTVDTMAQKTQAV

[2] = target: T2, C5a anaphylatoxin chemotactic receptor 1 (Homo sapiens) (UniProt P21730); test: Inhibition of [125I]C5a binding to C5a anaphylatoxin chemotactic receptor of human neutrophil membrane preparations at 30 uM.
T2 sequence (whole entry): T1 sequence (P21730 whole entry)

[3] = target: T2, C5a anaphylatoxin chemotactic receptor 1 (Homo sapiens); test: Tested for the ability to compete with [125I]-CO13 [125I]-Y-F-K-A-Cha-G-L-dF-R) for binding to C5a anaphylatoxin chemotactic receptor of human neutrophil membrane preparations at 30 uM concentration
[4] = target: T1, C5a anaphylatoxin chemotactic receptor 1; test: Tested for its ability to compete with [125I]C5a for binding to C5a anaphylatoxin chemotactic receptor of human neutrophil membrane preparations
[5] = target: T2, C5a anaphylatoxin chemotactic receptor 1 (Homo sapiens); test: Tested for […] to evaluate its ability to block C5a induced myeloperoxide (MPO release from neutrophils (for antagonists) or induce MPO release (for agonists)
[6] = target: T2, C5a anaphylatoxin chemotactic receptor 1 (Homo sapiens); test: Tested for the ability to compete with [125I]C5a for binding to human C5a anaphylatoxin chemotactic receptor of human neutrophil membrane preparations at 30 uM concentration
[7] = target: T1, C5a anaphylatoxin chemotactic receptor 1; test: Tested for the its ability to compete with [125I]-CO13 [125I]-Y-F-K-A-Cha-G-L-dF-R) for binding to C5a anaphylatoxin chemotactic receptor of human neutrophil membrane preparations
[8] = target: T2, C5a anaphylatoxin chemotactic receptor 1 (Homo sapiens); test: Tested for the ability to compete with [125I]-CO13 [125I]-Y-F-K-A-Cha-G-L-dF-R) for binding to C5a anaphylatoxin chemotactic receptor of human neutrophil membrane preparations; conditions: concentration not given here

Row | Structure (SMILES) | IC50 [1] [nM] | inhibition [2] [%] | IC50 [4] [nM] | also measured
1 | CCC[C@H](C(=O)N1CCC2(CCc3ccccc32)CC1)N1C(=O)N[C@H](CCCN=C(N)N)C1=O | 3000 | 63 | – | –
2 | N=C(N)NCCC[C@H]1NC(=O)N(C(CCc2ccccc2)C(=O)N2CCC3(CCc4ccccc43)CC2)C1=O (stereo partly specified) | 3000 | 46 | – | –
3 | CC(=O)OCC1(c2ccccc2)CCN(C(=O)[C@@H](CC2CCCCC2)N2C(=O)N[C@H](CCCN=C(N)N)C2=O)CC1 | – | 35 | – | inhibition [3]: 48%
4 | N=C(N)NCCC[C@H]1NC(=O)N([C@H](Cc2ccc(O)cc2)C(=O)N2CCC3(CCc4ccccc43)CC2)C1=O | 4000 | – | – | –
5 | N=C(N)NCCC[C@H]1NC(=O)N([C@H](CC(=O)N2CCCCC2)C(=O)N2CCC3(CCc4ccccc43)CC2)C1=O | – | 26 | – | inhibition [3]: 52%
6 | N=C(N)NCCC[C@H]1NC(=O)N([C@H](CC2CCCCC2)C(=O)N2CCC3(C=Cc4ccccc43)CC2)C1=O | 300 | – | 1500 | –
7 | Cc1cccc(C)c1N1CCN(C(=O)[C@@H](CC2CCCCC2)N2C(=O)N[C@H](CCCN=C(N)N)C2=O)CC1 | 40 | – | 220 | Release [5]: 78%
8 | Cc1ccc(N2CCN(C(=O)[C@@H](CC3CCCCC3)N3C(=O)N[C@H](CCCN=C(N)N)C3=O)CC2)c(C)c1 | 60 | – | 300 | Release [5]: 90%
9 | N=C(N)NCCC[C@H]1NC(=O)N([C@H](Cc2ccccc2)C(=O)N2CCC3(CCc4ccccc43)CC2)C1=O | 800 | – | 8000 | –
10 | N=C(N)NCCC[C@H]1NC(=O)N([C@H](CC2CCCCC2)C(=O)N2CCC3(CC2)CC(=O)c2ccccc23)C1=O | 1500 | 58 | – | –
11 | N=C(N)NCCC[C@H]1NC(=O)N([C@H](CC(=O)O)C(=O)N2CCC3(CCc4ccccc43)CC2)C1=O | – | 0 | – | –
12 | N=C(N)NCCC[C@H]1NC(=O)N([C@H](Cc2cccc3ccccc23)C(=O)N2CCC3(CCc4ccccc43)CC2)C1=O | 11000 | 77 | – | –
13 | CSCC[C@H](C(=O)N1CCC2(CCc3ccccc32)CC1)N1C(=O)N[C@H](CCCN=C(N)N)C1=O | 3400 | 57 | – | –
14 | N=C(N)NCCC[C@H]1NC(=O)N([C@H](CC2CCCCC2)C(=O)N2CCN(c3ccccc3)CC2)C1=O | 1000 | 66 | – | –
15 | NCCCC[C@H]1NC(=O)N([C@H](CC2CCCCC2)C(=O)N2CCC3(CCc4ccccc43)CC2)C1=O | 4000 | – | – | –
16 | CC(C)[C@H](C(=O)N1CCC2(CCc3ccccc32)CC1)N1C(=O)N[C@H](CCCN=C(N)N)C1=O | 1200 | 70 | – | –
17 | CC[C@@H](C)[C@H](C(=O)N1CCC2(CCc3ccccc32)CC1)N1C(=O)N[C@H](CCCN=C(N)N)C1=O | 200 | – | 1200 | Release [5]: 31%
18 | Cc1ccccc1N1CCN(C(=O)[C@@H](CC2CCCCC2)N2C(=O)N[C@H](CCCN=C(N)N)C2=O)CC1 | 40 | – | 350 | Release [5]: 76%

Row | Structure (SMILES) | IC50 [1] [nM] | inhibition [2] [%] | IC50 [4] [nM] | also measured
19 | N=C(N)NCCC[C@H]1NC(=O)N(C(Cc2ccccc2)C(=O)N2CCC3(CCc4ccccc43)CC2)C1=O (stereo partly specified) | – | 60 | – | inhibition [3]: 78%
20 | N=C(N)NCCC[C@H]1NC(=O)N([C@H](Cc2ccc3ccccc3c2)C(=O)N2CCC3(CCc4ccccc43)CC2)C1=O | 2000 | 67 | – | –
21 | CC(O)[C@H](C(=O)N1CCC2(CCc3ccccc32)CC1)N1C(=O)N[C@H](CCCN=C(N)N)C1=O (stereo partly specified) | – | 14 | – | inhibition [3]: 57%
22 | N=C(N)NCCC[C@@H]1NC(=O)N([C@H](Cc2ccccc2)C(=O)N2CCC3(CCc4ccccc43)CC2)C1=O | 4000 | 39 | – | –
23 | N=C(N)NCCC[C@H]1NC(=O)N([C@@H](C(=O)N2CCC3(CCc4ccccc43)CC2)C(c2ccccc2)c2ccccc2)C1=O | – | – | – | inhibition [6]: 75%
24 | N=C(N)NCCC[C@H]1NC(=O)N([C@H](CC2CCC(C3CCCCC3)CC2)C(=O)N2CCC3(CCc4ccccc43)CC2)C1=O (stereo partly specified) | 5000 | 26 | – | –
25 | NC(=O)NCCC[C@H]1NC(=O)N([C@H](CC2CCCCC2)C(=O)N2CCC3(CCc4ccccc43)CC2)C1=O | – | – | – | inhibition [3]: 58%
26 | N=C(N)NCCC[C@H]1NC(=O)N([C@H](Cc2c[nH]c3ccccc23)C(=O)N2CCC3(CCc4ccccc43)CC2)C1=O | 450 | – | 5000 | –
27 | N=C(N)NCCC[C@H]1NC(=O)N([C@H](CC2CCCCC2)C(=O)N2CCC(c3ccccc3)CC2)C1=O | 30 | – | 400 | Release [5]: 88%
28 | CC(C)c1ccccc1N1CCN(C(=O)[C@@H](CC2CCCCC2)N2C(=O)N[C@H](CCCN=C(N)N)C2=O)CC1 | – | – | – | inhibition [3]: 14%
29 | N=C(N)NCCC[C@H]1NC(=O)N([C@H](Cc2ccc(-c3ccccc3)cc2)C(=O)N2CCC3(CCc4ccccc43)CC2)C1=O | – | – | 2300 | IC50 [7]: 900 nM
30 | N=C(N)NCCC[C@H]1NC(=O)N([C@H](Cc2ccc(F)cc2)C(=O)N2CCC3(CCc4ccccc43)CC2)C1=O | 230 | 75 | – | –
31 | N=C(N)NCCC[C@H]1NC(=O)N([C@H](CC2CCCCC2)C(=O)N2CCC3(CCc4ccccc43)CC2)C1=O | 25 | – | 300 | Release [5]: 86%
32 | N=C(N)NCCCC[C@H]1NC(=O)N([C@H](CC2CCCCC2)C(=O)N2CCC3(CCc4ccccc43)CC2)C1=O | 300 | – | – | –
33 | CC(C)C[C@H](C(=O)N1CCC2(CCc3ccccc32)CC1)N1C(=O)N[C@H](CCCN=C(N)N)C1=O | 450 | – | 2000 | Release [5]: 10%
34 | N=C(N)NCCC[C@H]1NC(=O)N([C@@H](Cc2ccccc2)C(=O)N2CCC3(CCc4ccccc43)CC2)C1=O | – | 3 | – | inhibition [3]: 15%
35 | CCCC[C@H](C(=O)N1CCC2(CCc3ccccc32)CC1)N1C(=O)N[C@H](CCCN=C(N)N)C1=O | – | 20 | – | inhibition [8]: 54%
36 | Nc1ccc(C[C@H]2NC(=O)N([C@H](CC3CCCCC3)C(=O)N3CCC4(CCc5ccccc54)CC3)C2=O)cc1 | – | – | – | inhibition [3]: 75%
